How the values were obtained:
[1] = test system: Tyrosine-protein kinase ABL1 (Homo sapiens), P00519 [M351T]; settings: Compound concentration 1000.0 nM
[2] = biological target: RAC-alpha serine/threonine-protein kinase (Homo sapiens) (UniProt P31749); settings: Compound concentration 1000.0 nM
[3] = biological target: Ankyrin repeat and protein kinase domain-containing protein 1 (Homo sapiens) (UniProt Q8NFD2); settings: Compound concentration 1000.0 nM
[4] = biological target: Aurora kinase B (Homo sapiens) (UniProt Q96GD4); settings: Compound concentration 1000.0 nM
[5] = biological target: Calcium/calmodulin-dependent protein kinase type 1D (Homo sapiens) (UniProt Q8IU85); settings: Compound concentration 1000.0 nM
[6] = biological target: Cyclin-dependent kinase 5 (Homo sapiens) (UniProt Q00535); settings: Compound concentration 1000.0 nM
[7] = biological target: Dual specificity protein kinase CLK2 (Homo sapiens) (UniProt P49760); settings: Compound concentration 1000.0 nM
[8] = biological target: Dual specificity protein kinase CLK3 (Homo sapiens) (UniProt P49761); settings: Compound concentration 1000.0 nM
[9] = biological target: Serine/threonine-protein kinase MRCK gamma (Homo sapiens) (UniProt Q6DT37); settings: Compound concentration 1000.0 nM
[10] = test system: Epidermal growth factor receptor (Homo sapiens), P00533 [L858R,T790M]; settings: Compound concentration 1000.0 nM
[11] = biological target: Ephrin type-A receptor 4 (Homo sapiens) (UniProt P54764); settings: Compound concentration 1000.0 nM
[12] = biological target: Mitogen-activated protein kinase 7 (Homo sapiens) (UniProt Q13164); settings: Compound concentration 1000.0 nM
[13] = test system: eIF-2-alpha kinase GCN2 (Homo sapiens), Q9P2K8 [S808G]; settings: Compound concentration 1000.0 nM
[14] = biological target: Homeodomain-interacting protein kinase 1 (Homo sapiens) (UniProt Q86Z02); settings: Compound concentration 1000.0 nM
[15] = biological target: Mitogen-activated protein kinase 8 (Homo sapiens) (UniProt P45983); settings: Compound concentration 1000.0 nM
[16] = test system: Mast/stem cell growth factor receptor Kit (Homo sapiens), P10721 [L576P]; settings: Compound concentration 1000.0 nM
[17] = test system: Mast/stem cell growth factor receptor Kit (Homo sapiens), P10721 [V559D,T670I]; settings: Compound concentration 1000.0 nM
[18] = test system: Mast/stem cell growth factor receptor Kit (Homo sapiens), P10721 [V559D,V654A]; settings: Compound concentration 1000.0 nM
[19] = biological target: Hepatocyte growth factor receptor (Homo sapiens) (UniProt P08581); settings: Compound concentration 1000.0 nM
[20] = biological target: Mitogen-activated protein kinase kinase kinase 11 (Homo sapiens) (UniProt Q16584); settings: Compound concentration 1000.0 nM
[21] = biological target: Macrophage-stimulating protein receptor (Homo sapiens) (UniProt Q04912); settings: Compound concentration 1000.0 nM
[22] = biological target: Serine/threonine-protein kinase Nek3 (Homo sapiens) (UniProt P51956); settings: Compound concentration 1000.0 nM
[23] = biological target: Serine/threonine-protein kinase Nek4 (Homo sapiens) (UniProt P51957); settings: Compound concentration 1000.0 nM
[24] = biological target: Cyclin-dependent kinase 18 (Homo sapiens) (UniProt Q07002); settings: Compound concentration 1000.0 nM
[25] = biological target: Calcium-dependent protein kinase 1 (Plasmodium falciparum) (UniProt P62344); settings: Compound concentration 1000.0 nM
[26] = biological target: 1-phosphatidylinositol 3-phosphate 5-kinase (Homo sapiens) (UniProt Q9Y2I7); settings: Compound concentration 1000.0 nM
[27] = biological target: Phosphatidylinositol 5-phosphate 4-kinase type-2 beta (Homo sapiens) (UniProt P78356); settings: Compound concentration 1000.0 nM
[28] = biological target: Protein kinase C theta type (Homo sapiens) (UniProt Q04759); settings: Compound concentration 1000.0 nM
[29] = biological target: Proto-oncogene tyrosine-protein kinase receptor Ret (Homo sapiens) (UniProt P07949); settings: Compound concentration 1000.0 nM
[30] = test system: Proto-oncogene tyrosine-protein kinase receptor Ret (Homo sapiens), P07949 [V804L]; settings: Compound concentration 1000.0 nM
[31] = test system: Proto-oncogene tyrosine-protein kinase receptor Ret (Homo sapiens), P07949 [V804M]; settings: Compound concentration 1000.0 nM
[32] = biological target: Dual serine/threonine and tyrosine protein kinase (Homo sapiens) (UniProt Q6XUX3); settings: Compound concentration 1000.0 nM
[33] = biological target: Ribosomal protein S6 kinase alpha-1 (Homo sapiens) (UniProt Q15418); settings: Compound concentration 1000.0 nM
[34] = biological target: Serine/threonine-protein kinase Sgk3 (Homo sapiens) (UniProt Q96BR1); settings: Compound concentration 1000.0 nM
[35] = biological target: Serine/threonine-protein kinase 33 (Homo sapiens) (UniProt Q9BYT3); settings: Compound concentration 1000.0 nM
[36] = biological target: Mitogen-activated protein kinase kinase kinase 7 (Homo sapiens) (UniProt O43318); settings: Compound concentration 1000.0 nM
[37] = biological target: Angiopoietin-1 receptor (Homo sapiens) (UniProt Q02763); settings: Compound concentration 1000.0 nM
[38] = biological target: Testis-specific serine/threonine-protein kinase 1 (Homo sapiens) (UniProt Q9BXA7); settings: Compound concentration 1000.0 nM
[39] = biological target: 5-hydroxytryptamine receptor 2B (Homo sapiens) (UniProt P41595); settings: Compound concentration 10.0 uM
[40] = biological target: 5-hydroxytryptamine receptor 2C (Homo sapiens) (UniProt P28335); settings: Compound concentration 10.0 uM
[41] = biological target: D(1B) dopamine receptor (Homo sapiens) (UniProt P21918); settings: Compound concentration 10.0 uM
[42] = biological target: Histamine H3 receptor (Homo sapiens) (UniProt Q9Y5N1); settings: Compound concentration 10.0 uM
[43] = biological target: GABA-A receptor; anion channel (Rattus norvegicus) (UniProt O09028+P15431+P18506+P18508+P19969+P20236+P23574+P23576+P28471+P28473+P30191+P62813+P63079+P63138+Q91ZM7+Q9ES14); settings: Compound concentration 10.0 uM
Rattus norvegicus = species on record: Rattus norvegicus; settings: Compound concentration 10.0 uM

Serine/threonine-protein kinase MRCK gamma (Homo sapiens), sequence (Q6DT37 whole entry): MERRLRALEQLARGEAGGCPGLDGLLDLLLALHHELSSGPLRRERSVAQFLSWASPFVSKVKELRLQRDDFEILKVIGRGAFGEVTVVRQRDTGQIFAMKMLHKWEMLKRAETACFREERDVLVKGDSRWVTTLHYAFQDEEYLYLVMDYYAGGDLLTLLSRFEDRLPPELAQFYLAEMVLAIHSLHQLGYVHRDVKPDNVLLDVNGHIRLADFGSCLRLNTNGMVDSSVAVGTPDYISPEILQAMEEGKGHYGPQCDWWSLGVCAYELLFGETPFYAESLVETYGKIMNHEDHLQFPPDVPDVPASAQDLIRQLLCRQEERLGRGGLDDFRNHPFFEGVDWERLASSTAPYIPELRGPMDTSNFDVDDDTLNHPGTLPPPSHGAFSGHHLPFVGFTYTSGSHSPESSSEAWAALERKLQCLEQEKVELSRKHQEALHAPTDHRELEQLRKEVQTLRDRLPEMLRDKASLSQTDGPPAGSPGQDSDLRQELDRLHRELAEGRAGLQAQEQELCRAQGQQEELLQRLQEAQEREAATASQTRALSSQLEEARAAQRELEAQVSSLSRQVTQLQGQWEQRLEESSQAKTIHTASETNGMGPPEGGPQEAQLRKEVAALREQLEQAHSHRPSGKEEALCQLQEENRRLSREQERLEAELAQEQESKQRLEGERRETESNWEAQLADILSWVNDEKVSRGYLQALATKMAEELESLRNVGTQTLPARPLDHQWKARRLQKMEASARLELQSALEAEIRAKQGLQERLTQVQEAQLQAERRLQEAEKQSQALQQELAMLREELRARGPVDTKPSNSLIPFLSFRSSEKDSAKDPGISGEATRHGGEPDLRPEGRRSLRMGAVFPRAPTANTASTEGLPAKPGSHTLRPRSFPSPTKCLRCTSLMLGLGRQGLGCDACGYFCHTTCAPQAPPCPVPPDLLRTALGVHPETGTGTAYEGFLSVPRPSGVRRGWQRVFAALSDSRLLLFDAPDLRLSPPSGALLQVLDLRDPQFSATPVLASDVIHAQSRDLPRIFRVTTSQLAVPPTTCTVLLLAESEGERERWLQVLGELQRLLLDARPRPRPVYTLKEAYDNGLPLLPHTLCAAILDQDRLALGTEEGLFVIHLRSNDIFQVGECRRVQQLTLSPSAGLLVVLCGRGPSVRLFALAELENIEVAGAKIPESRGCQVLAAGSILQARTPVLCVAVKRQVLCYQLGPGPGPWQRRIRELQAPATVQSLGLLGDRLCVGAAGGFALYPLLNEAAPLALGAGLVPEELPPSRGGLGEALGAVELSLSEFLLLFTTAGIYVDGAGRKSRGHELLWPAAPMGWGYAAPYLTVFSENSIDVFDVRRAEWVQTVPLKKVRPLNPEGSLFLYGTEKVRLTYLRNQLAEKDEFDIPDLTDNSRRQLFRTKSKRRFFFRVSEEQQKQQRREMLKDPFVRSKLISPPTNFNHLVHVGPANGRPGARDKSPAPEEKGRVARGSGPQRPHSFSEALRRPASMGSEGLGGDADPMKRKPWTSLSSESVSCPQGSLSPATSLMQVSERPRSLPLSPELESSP
5-hydroxytryptamine receptor 2B (Homo sapiens), sequence (P41595 whole entry): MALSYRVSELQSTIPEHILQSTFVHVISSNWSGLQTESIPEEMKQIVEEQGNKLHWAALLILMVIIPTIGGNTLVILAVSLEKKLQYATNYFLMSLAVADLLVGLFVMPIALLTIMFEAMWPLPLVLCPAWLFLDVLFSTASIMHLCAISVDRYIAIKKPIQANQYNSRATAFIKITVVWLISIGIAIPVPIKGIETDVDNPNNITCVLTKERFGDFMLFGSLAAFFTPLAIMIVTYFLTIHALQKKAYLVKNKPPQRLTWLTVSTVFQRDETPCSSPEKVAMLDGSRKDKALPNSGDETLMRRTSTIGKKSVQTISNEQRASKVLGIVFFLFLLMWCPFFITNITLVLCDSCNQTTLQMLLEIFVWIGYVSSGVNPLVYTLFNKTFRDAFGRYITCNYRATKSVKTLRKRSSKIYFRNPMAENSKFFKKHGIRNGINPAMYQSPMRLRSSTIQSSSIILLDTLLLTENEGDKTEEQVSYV
Serine/threonine-protein kinase 33 (Homo sapiens), sequence (Q9BYT3 whole entry, looked up): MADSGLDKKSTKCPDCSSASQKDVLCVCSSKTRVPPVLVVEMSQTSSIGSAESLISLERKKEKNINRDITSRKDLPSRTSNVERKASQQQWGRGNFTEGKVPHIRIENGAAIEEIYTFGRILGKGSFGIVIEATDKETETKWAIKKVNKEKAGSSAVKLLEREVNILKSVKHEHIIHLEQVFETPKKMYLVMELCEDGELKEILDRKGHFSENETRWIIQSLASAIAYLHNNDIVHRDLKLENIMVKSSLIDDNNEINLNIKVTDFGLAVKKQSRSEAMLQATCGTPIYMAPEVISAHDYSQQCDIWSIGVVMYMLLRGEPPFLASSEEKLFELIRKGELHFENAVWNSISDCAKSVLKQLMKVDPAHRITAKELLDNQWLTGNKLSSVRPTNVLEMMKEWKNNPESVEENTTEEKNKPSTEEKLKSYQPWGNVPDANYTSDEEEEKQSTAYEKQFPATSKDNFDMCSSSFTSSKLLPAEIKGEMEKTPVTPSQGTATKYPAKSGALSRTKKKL
Mast/stem cell growth factor receptor Kit (Homo sapiens), P10721 [V559D,V654A], sequence (P10721 whole entry V559D/V654A): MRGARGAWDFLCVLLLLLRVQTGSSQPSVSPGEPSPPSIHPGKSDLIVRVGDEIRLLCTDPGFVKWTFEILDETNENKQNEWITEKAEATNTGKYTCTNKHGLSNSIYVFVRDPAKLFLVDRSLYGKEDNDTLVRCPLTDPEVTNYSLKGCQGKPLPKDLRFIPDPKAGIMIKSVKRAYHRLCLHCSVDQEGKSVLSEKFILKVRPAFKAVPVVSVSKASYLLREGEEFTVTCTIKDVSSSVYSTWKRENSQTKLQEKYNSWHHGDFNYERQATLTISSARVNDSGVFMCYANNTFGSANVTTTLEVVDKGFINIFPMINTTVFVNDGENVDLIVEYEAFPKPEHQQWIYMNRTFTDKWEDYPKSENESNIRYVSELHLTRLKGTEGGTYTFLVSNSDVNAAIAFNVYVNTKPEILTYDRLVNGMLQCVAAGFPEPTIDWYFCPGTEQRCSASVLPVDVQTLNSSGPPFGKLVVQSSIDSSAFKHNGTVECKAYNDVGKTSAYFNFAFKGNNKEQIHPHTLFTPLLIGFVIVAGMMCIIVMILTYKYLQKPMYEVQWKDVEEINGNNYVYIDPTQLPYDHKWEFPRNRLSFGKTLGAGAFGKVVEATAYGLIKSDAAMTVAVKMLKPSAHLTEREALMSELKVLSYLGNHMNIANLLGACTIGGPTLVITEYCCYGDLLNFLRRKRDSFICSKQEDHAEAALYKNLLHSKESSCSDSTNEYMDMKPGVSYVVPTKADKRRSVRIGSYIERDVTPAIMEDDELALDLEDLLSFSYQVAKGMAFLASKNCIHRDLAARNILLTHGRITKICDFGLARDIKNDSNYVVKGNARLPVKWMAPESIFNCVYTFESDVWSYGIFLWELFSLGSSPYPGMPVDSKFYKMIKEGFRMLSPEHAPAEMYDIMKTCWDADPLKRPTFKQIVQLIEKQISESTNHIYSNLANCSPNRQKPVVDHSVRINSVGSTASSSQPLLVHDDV
Phosphatidylinositol 5-phosphate 4-kinase type-2 beta (Homo sapiens), sequence (P78356 whole entry): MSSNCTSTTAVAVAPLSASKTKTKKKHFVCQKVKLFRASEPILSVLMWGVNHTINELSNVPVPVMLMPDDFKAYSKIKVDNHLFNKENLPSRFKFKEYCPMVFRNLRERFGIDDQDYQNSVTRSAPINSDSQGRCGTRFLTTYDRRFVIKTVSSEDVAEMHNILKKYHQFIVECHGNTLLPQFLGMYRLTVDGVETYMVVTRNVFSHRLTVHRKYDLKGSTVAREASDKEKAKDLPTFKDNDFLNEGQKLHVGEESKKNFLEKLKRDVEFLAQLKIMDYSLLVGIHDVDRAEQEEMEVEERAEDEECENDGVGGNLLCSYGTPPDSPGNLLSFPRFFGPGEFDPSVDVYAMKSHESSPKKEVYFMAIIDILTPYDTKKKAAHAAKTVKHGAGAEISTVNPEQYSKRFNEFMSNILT
Cyclin-dependent kinase 5 (Homo sapiens), sequence (Q00535 whole entry, looked up): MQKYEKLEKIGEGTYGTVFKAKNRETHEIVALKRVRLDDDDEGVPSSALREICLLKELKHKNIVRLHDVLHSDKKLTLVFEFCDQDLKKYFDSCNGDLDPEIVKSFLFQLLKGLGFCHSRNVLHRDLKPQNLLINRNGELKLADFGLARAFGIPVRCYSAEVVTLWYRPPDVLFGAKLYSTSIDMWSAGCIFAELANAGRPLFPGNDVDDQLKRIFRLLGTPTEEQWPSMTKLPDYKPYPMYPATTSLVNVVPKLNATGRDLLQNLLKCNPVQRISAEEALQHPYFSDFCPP
Serine/threonine-protein kinase Sgk3 (Homo sapiens), sequence (Q96BR1 whole entry): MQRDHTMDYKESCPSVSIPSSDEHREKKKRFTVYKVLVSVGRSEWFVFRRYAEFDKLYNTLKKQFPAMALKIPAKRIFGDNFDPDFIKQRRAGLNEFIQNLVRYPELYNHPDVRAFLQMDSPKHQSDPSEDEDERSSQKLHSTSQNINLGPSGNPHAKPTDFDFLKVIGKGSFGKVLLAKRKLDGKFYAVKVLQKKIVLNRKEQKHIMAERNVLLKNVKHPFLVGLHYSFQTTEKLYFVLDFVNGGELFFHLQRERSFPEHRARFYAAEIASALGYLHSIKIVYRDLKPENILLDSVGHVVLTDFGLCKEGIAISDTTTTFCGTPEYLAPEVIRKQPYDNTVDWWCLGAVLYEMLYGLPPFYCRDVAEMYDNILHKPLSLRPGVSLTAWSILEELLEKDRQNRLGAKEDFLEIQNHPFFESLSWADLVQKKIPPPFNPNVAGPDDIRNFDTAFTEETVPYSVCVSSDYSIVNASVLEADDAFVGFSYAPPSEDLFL
Mast/stem cell growth factor receptor Kit (Homo sapiens), P10721 [V559D,T670I], sequence (P10721 whole entry V559D/T670I): as the sequence (P10721 whole entry V559D/V654A) above, with A654V, T670I counted along it
Mast/stem cell growth factor receptor Kit (Homo sapiens), P10721 [L576P], sequence (P10721 whole entry L576P): as the sequence (P10721 whole entry V559D/V654A) above, with D559V, L576P, A654V counted along it

## CCC(=O)N[C@H]1CC[C@@H](C(=O)N(C)c2ccc(-c3nc4ccccc4o3)cc2)C1 [BI 99179]
[1]
  residual activity: 94%
[2]
  residual activity: 97%
[3]
  residual activity: 66%
[4]
  residual activity: 83%
[5]
  residual activity: 100%
[6]
  residual activity: 87%
[7]
  residual activity: 95%
[8]
  residual activity: 91%
[9]
  residual activity: 91%
[10]
  residual activity: 100%
[11]
  residual activity: 79%
[12]
  residual activity: 78%
[13]
  residual activity: 100%
[14]
  residual activity: 80%
[15]
  residual activity: 58%
[16]
  residual activity: 61%
[17]
  residual activity: 100%
[18]
  residual activity: 89%
[19]
  residual activity: 100%
[20]
  residual activity: 93%
[21]
  residual activity: 87%
[22]
  residual activity: 66%
[23]
  residual activity: 99%
[24]
  residual activity: 100%
[25]
  residual activity: 83%
[26]
  residual activity: 94%
[27]
  residual activity: 54%
[28]
  residual activity: 84%
[29]
  residual activity: 92%
[30]
  residual activity: 98%
[31]
  residual activity: 100%
[32]
  residual activity: 87%
[33]
  residual activity: 99%
[34]
  residual activity: 66%
[35]
  residual activity: 100%
[36]
  residual activity: 86%
[37]
  residual activity: 85%
[38]
  residual activity: 91%
[39]
  inhibition: 4.55%
[40]
  inhibition: 8.87%
[41]
  inhibition: -9.45%
[42]
  inhibition: -8.17%
[43]
  inhibition: 23.2%
Rattus norvegicus
  inhibition: 3.17%

## CCC(=O)N[C@@H]1CC[C@H](C(=O)N(C)c2ccc(-c3nc4ccccc4o3)cc2)C1 [BI 99990]
[1]
  residual activity: 100%
[2]
  residual activity: 100%
[3]
  residual activity: 100%
[4]
  residual activity: 96%
[5]
  residual activity: 100%
[6]
  residual activity: 100%
[7]
  residual activity: 100%
[8]
  residual activity: 100%
[9]
  residual activity: 100%
[10]
  residual activity: 100%
[11]
  residual activity: 100%
[12]
  residual activity: 100%
[13]
  residual activity: 54%
[14]
  residual activity: 87%
[15]
  residual activity: 53%
[16]
  residual activity: 100%
[17]
  residual activity: 93%
[18]
  residual activity: 100%
[19]
  residual activity: 100%
[20]
  residual activity: 100%
[21]
  residual activity: 100%
[22]
  residual activity: 73%
[23]
  residual activity: 95%
[24]
  residual activity: 95%
[25]
  residual activity: 90%
[26]
  residual activity: 93%
[27]
  residual activity: 45%
[28]
  residual activity: 76%
[29]
  residual activity: 93%
[30]
  residual activity: 100%
[31]
  residual activity: 100%
[32]
  residual activity: 93%
[33]
  residual activity: 100%
[34]
  residual activity: 100%
[35]
  residual activity: 100%
[36]
  residual activity: 100%
[37]
  residual activity: 82%
[38]
  residual activity: 76%
[39]
  inhibition: 19.1%
[40]
  inhibition: 5.92%
[41]
  inhibition: 4.47%
[42]
  inhibition: 1.65%
[43]
  inhibition: 40.3%
Rattus norvegicus
  inhibition: 5.21%

— ChEMBL document CHEMBL4507280 (2021)
